The record followed here is ChEMBL document CHEMBL3044833, “Anticonvulsant activity of 3,5-dimethylpyrazole derivatives in animal models” (Med Chem Res, 2011).

Calls of active or inactive are those of the source. The rule behind the calls is not given here.

Data set [1] concerns Mus musculus. Kind of data set: Anticonvulsant activity in Mus musculus Balb/c (mouse) assessed as increase in latency to seizure at 100 mg/kg, ip pretreated 30 min before pentylenetetrazol challenge by pentylenetetrazol test. Type of data set: functional, organism-based. On the set-up: dose 100 mg/kg.
Data set [2] concerns Mus musculus. The data set can be described thus: Anticonvulsant activity in Mus musculus Balb/c (mouse) assessed as effect on severity of seizure at 150 to 200 mg/kg, ip pretreated 30 min before pentylenetetrazol challenge by pentylenetetrazol test. Type of data set: functional, organism-based.
The test system of data set [3] is Mus musculus. Kind of data set: Anticonvulsant activity in Mus musculus Balb/c (mouse) assessed as inhibition of pentylenetetrazol-induced mortality at 150 to 200 mg/kg, ip pretreated 30 min before pentylenetetrazol challenge by pentylenetetrazol test. The class given is functional, organism-based.
Data set [4] concerns Mus musculus. The data set can be described thus: Anticonvulsant activity in Mus musculus Balb/c (mouse) assessed as increase in latency to seizure at 150 to 200 mg/kg, ip pretreated 30 min before pentylenetetrazol challenge by pentylenetetrazol test. Type of data set: functional, organism-based.
Data set [5] has as its system Mus musculus. The data set can be described thus: Anticonvulsant activity in Mus musculus Balb/c (mouse) assessed as inhibition of pentylenetetrazol-induced mortality at 100 mg/kg, ip pretreated 30 min before pentylenetetrazol challenge by pentylenetetrazol test. The class given is functional, organism-based. On the set-up: dose 100 mg/kg.
Data set [6] deals with Mus musculus. The data set can be described thus: Anticonvulsant activity in Mus musculus Balb/c (mouse) assessed as decrease in severity of seizure at 100 mg/kg, ip pretreated 30 min before pentylenetetrazol challenge by pentylenetetrazol test. The class given is functional, organism-based. More on the design: dose 100 mg/kg.
Data set [7] concerns Mus musculus. Kind of data set: Toxicity in Mus musculus Balb/c (mouse) assessed as duration of spike-wave discharges at 150 mg/kg, ip measured for 2 hr by EEG recordings (reference value: 359.8 +/- 33.5 sec). Type of data set: organism-based. On the set-up: dose 150 mg/kg, route intraperitoneal. Conditions: in vivo.
Data set [8] relates to Mus musculus. The data set can be described thus: Anticonvulsant activity in Mus musculus Balb/c (mouse) assessed as decrease in severity of seizure at 150 to 200 mg/kg, ip pretreated 30 min before pentylenetetrazol challenge by pentylenetetrazol test. Type of data set: functional, organism-based.
Data set [9] relates to Mus musculus. Kind of data set: Toxicity in Mus musculus Balb/c (mouse) assessed as duration of spike-wave discharges at 100 mg/kg, ip measured for 2 hr by EEG recordings (reference value: 359.8 +/- 33.5 sec). The class given is organism-based. On the set-up: dose 100 mg/kg, route intraperitoneal. Particulars: in vivo.
The test system of data set [10] is Mus musculus. The data set can be described thus: Anticonvulsant activity in Mus musculus Balb/c (mouse) assessed as effect on maximal electroshock-induced mortality rate 100 mg/kg, ip measured after 30 min. The class given is functional, organism-based. On the set-up: dose 100 mg/kg. In general terms: Protection in the maximal electroshock model is a classic sign of anticonvulsant action.

Data set [11] concerns Mus musculus. The data set can be described thus: Anticonvulsant activity in Mus musculus Balb/c (mouse) assessed as effect on latency of tonic hind limb extension at 100 mg/kg, ip measured after 30 min by maximal electroshock seizure test. Type of data set: functional, organism-based. More on the design: dose 100 mg/kg. Conditions: Hindlimb.
Data set [12] has as its system Mus musculus. Kind of data set: Anticonvulsant activity in Mus musculus Balb/c (mouse) assessed as decrease in duration of tonic hind limb extension at 100 mg/kg, ip measured after 30 min by maximal electroshock seizure test. Type of data set: functional, organism-based. More on the design: dose 100 mg/kg. Particulars: Hindlimb.

Regarding `COc1ccc(C(=O)Nc2c(C)nn(C(=O)c3ccc(OC)cc3)c2C)cc1`, the outcome with Mus musculus [1] and in the data set on Mus musculus [4] was Active. Moreover, the outcome in the data set with Mus musculus [2] was inactive. Moreover, in the data set on Mus musculus [3], the inhibition result is “inactive”. The inhibition entry with Mus musculus [5] and in the data set on Mus musculus [6] was “Active” each time.
As for `CCC1(C)CC(=O)NC1=O` (configuration not stated), the result in the data set with Mus musculus [1] was Active. The inhibition result in the data set on Mus musculus [5] and in the data set with Mus musculus [6] was “Active” in each case.
Consider `Cc1n[nH]c(C)c1/N=C/c1ccccc1O`, for which, in the data set with Mus musculus [1], the result was Active. The inhibition entry in the data set on Mus musculus [5] and in the data set on Mus musculus [6] was “Active” in each case.
`Cc1nn(C(=O)c2c(Cl)cccc2Cl)c(C)c1NC(=O)c1c(Cl)cccc1Cl`: the result in the data set with Mus musculus [1] and in the data set on Mus musculus [4] was Active. Also, the inhibition entry in the data set with Mus musculus [3], with Mus musculus [5], in the data set with Mus musculus [8] and in the data set on Mus musculus [6] was “Active” each time. Also, the Time with Mus musculus [7] is 337.5 s; with Mus musculus [9] it was 300 s.
Turning to `Cc1ccc(C(=O)Nc2c(C)nn(C(=O)c3ccc(C)cc3)c2C)cc1`, in the data set with Mus musculus [1], the result was Active. Moreover, the inhibition entry with Mus musculus [5] and with Mus musculus [6] was “Active” in each case.
For the compound `Cc1n[nH]c(C)c1NC(=O)c1cccnc1`, in the data set with Mus musculus [1], the result was Active. Further, the inhibition entry in the data set on Mus musculus [5] and in the data set on Mus musculus [6] was “Active” each time.
For `Cc1n[nH]c(C)c1NC(=O)c1ccncc1`, the outcome in the data set on Mus musculus [1] was Active. Further, the inhibition result in the data set with Mus musculus [5] and with Mus musculus [6] was “Active” in each case.
For `Cc1nn(C(=O)c2ccc(Cl)cc2)c(C)c1NC(=O)c1ccc(Cl)cc1`, the result in the data set with Mus musculus [1] was Active. Further, the inhibition result with Mus musculus [5] and in the data set with Mus musculus [6] was “Active” each time.
In the case of `Cc1nn(C(=O)c2ccc(F)cc2)c(C)c1NC(=O)c1ccc(F)cc1`, the result in the data set on Mus musculus [1] was Active. In addition, the outcome with Mus musculus [10] and in the data set on Mus musculus [11] was inactive. In addition, the inhibition result in the data set with Mus musculus [5], with Mus musculus [6] and with Mus musculus [12] was “Active” each time.
Take `Cc1n[nH]c(C)c1/N=C/c1c(Cl)cccc1Cl`: the result in the data set with Mus musculus [1] was Active. Also, the result in the data set with Mus musculus [10] and with Mus musculus [11] was inactive. For the same compound, the inhibition entry with Mus musculus [5], with Mus musculus [6] and in the data set on Mus musculus [12] was “Active” in each case.
Regarding `Cc1n[nH]c(C)c1/N=C/c1ccc(O)cc1`, the outcome in the data set on Mus musculus [1] was Active. Moreover, the inhibition result in the data set on Mus musculus [5] and in the data set on Mus musculus [6] was “Active” in each case.
